# Calls of active or inactive are those of the source. The rule behind the calls is not given here.
# Columns and labels:
# [1] = system: Rattus norvegicus; experiment: Antiinflammatory activity in rat assessed as inhibition of carrageenan-induced paw volume at 20 mg/kg, po administered 1 hr prior to carrageenan challenge measured after 3 hrs (reference value: 1.68 +/- 0.029 ml); assay type: functional
# [2] = system: Rattus norvegicus; experiment: Antiinflammatory activity in rat assessed as inhibition of carrageenan-induced paw volume at 20 mg/kg, po administered 1 hr prior to carrageenan challenge measured after 5 hrs (reference value: 1.70 +/- 0.020 ml); assay type: functional
# [3] = system: Rattus norvegicus; experiment: Antiinflammatory activity in rat assessed as inhibition of carrageenan-induced paw volume at 20 mg/kg, po administered 1 hr prior to carrageenan challenge measured after 3 hrs relative to vehicle-treated control; assay type: functional
# [4] = system: Rattus norvegicus; experiment: Antiinflammatory activity in rat assessed as inhibition of carrageenan-induced paw volume at 20 mg/kg, po administered 1 hr prior to carrageenan challenge measured after 5 hrs relative to vehicle-treated control; assay type: functional
# [5] = system: RAW264.7; experiment: Antiinflammatory activity against mouse RAW264.7 cells assessed as inhibition of LPS-induced TNFalpha level at 20 uM after 24 hrs by ELISA relative to untreated control; assay type: functional; conditions: RAW264.7, 24 h
# [6] = Cytotoxicity against mouse RAW264.7 cells assessed as cell viability at 20 uM after 24 hrs by MTT assay; assay type: cell-based; conditions: read-out: Activity
# [7] = system: Mus musculus; experiment: Analgesic activity in Swiss Albino acetic acid-induced writhing mouse model assessed as number of writhes at 20 mg/kg, po administered 30 mins before to acetic acid challenge measured for 10 mins (reference value: 92.8 +/- 1.49); assay type: functional
# [8] = system: Mus musculus; experiment: Analgesic activity in Swiss Albino acetic acid-induced writhing mouse model assessed as protection at 20 mg/kg, po administered 30 mins before to acetic acid challenge measured for 10 mins; assay type: functional
# [9] = system: Rattus norvegicus; experiment: Ulcerogenic effect in Albino Wistar rat assessed as damage in gastric mucosa at 60 mg, po after 5 hrs; assay type: toxicity, organism-based; conditions: in vivo
# [10] = Inhibition of carrageenan-induced TNFalpha expression in paw tissue (unknown origin) by immunohistochemistry; assay type: functional
# [11] = Inhibition of carrageenan-induced NFkappaB expression in paw tissue (unknown origin) by immunohistochemistry; assay type: functional
# [12] = Inhibition of carrageenan-induced COX-2 expression in paw tissue (unknown origin) by immunohistochemistry; assay type: functional
# [13] = Reduction in carrageenan-induced lipid peroxidation in gastric mucosa tissue (unknown origin) assessed as MDA after 30 mins; assay type: functional, tissue-based
SMILES,Activity [1] [mL],Activity [2] [mL],inhibition in vivo at 20 mg/kg [3] [%],inhibition in vivo at 20 mg/kg [4] [%],inhibition at 20 µM [5] [%],"viability at 24 h, 20 µM [6] [%]",Activity [7],Activity [8] [%],Activity [9],inhibition [10],inhibition [11],inhibition [12],inhibition [13]
O=C(/C=C/C=C/c1ccc2c(c1)OCO2)OCc1cn(-c2ccccc2Br)nn1,0.56,0.51,76.1,80.4,70.6,90,42.6,54.09,Non-toxic,Active,Active,Active,Active
O=C(/C=C/C=C/c1ccc2c(c1)OCO2)OCc1cn(-c2ccc([N+](=O)[O-])cc2)nn1,1.39,1.37,19.6,22.1,–,–,–,–,–,–,–,–,–
Cc1ccc(-n2cc(COC(=O)/C=C/C=C/c3ccc4c(c3)OCO4)nn2)cc1,1.01,0.98,46.2,49.1,–,–,–,–,–,–,–,–,–
O=C(/C=C/C=C/c1ccc2c(c1)OCO2)OCc1cn(-c2ccc(Br)cc2)nn1,0.89,0.87,53.6,55.5,–,–,–,–,–,–,–,–,–
COc1ccccc1-n1cc(COC(=O)/C=C/C=C/c2ccc3c(c2)OCO3)nn1,0.76,0.72,61.6,65,–,–,–,–,–,–,–,–,–
O=C(/C=C/C=C/c1ccc2c(c1)OCO2)N1CCCCC1 [PIPERINE],0.676,0.67,53.7,54.7,49.7,–,–,–,Non-toxic,–,–,–,–
O=C(/C=C/C=C/c1ccc2c(c1)OCO2)OCc1cn(-c2cccc(Cl)c2)nn1,0.71,0.69,64.7,67.8,–,–,–,–,–,–,–,–,–
O=C(/C=C/C=C/c1ccc2c(c1)OCO2)OCc1cn(-c2ccccc2Cl)nn1,0.58,0.56,74.5,76.7,73.7,90,45.8,50.64,Non-toxic,Active,Active,Active,Active
COc1ccc(-n2cc(COC(=O)/C=C/C=C/c3ccc4c(c3)OCO4)nn2)cc1,0.88,0.86,54,55.9,–,–,–,–,–,–,–,–,–
O=C(/C=C/C=C/c1ccc2c(c1)OCO2)OCc1cn(-c2ccc(Cl)cc2Cl)nn1,0.64,0.622,69.3,71.2,60.7,90,51,45.04,Non-toxic,–,–,–,Active
CCOc1ccc(-n2cc(COC(=O)/C=C/C=C/c3ccc4c(c3)OCO4)nn2)cc1,1.1,1.14,32.9,36.5,–,–,–,–,–,–,–,–,–
Cc1ccccc1-n1cc(COC(=O)/C=C/C=C/c2ccc3c(c2)OCO3)nn1,0.91,0.88,51.5,54.6,–,–,–,–,–,–,–,–,–
O=C(/C=C/C=C/c1ccc2c(c1)OCO2)OCc1cn(-c2ccccc2F)nn1,0.68,0.65,68.2,70.8,–,–,45.8,48.7,–,–,–,–,–
Cc1ccc(-n2cc(COC(=O)/C=C/C=C/c3ccc4c(c3)OCO4)nn2)cc1C,0.68,0.66,67.9,70.3,–,–,51.2,44.93,–,–,–,–,–
COc1ccc2c(c1)c(CC(=O)O)c(C)n2C(=O)c1ccc(Cl)cc1 [INDOMETHACIN],0.608,0.54,72,77,68,55,39.4,57.43,Toxic,Active,Active,Active,–
O=C(/C=C/C=C/c1ccc2c(c1)OCO2)OCc1cn(-c2ccc(Cl)cc2)nn1,0.83,0.81,57.5,59.7,–,–,–,–,–,–,–,–,–
O=C(/C=C/C=C/c1ccc2c(c1)OCO2)OCc1cn(-c2ccccc2)nn1,1.12,1.11,37,38.5,–,–,–,–,–,–,–,–,–
O=C(/C=C/C=C/c1ccc2c(c1)OCO2)OCc1cn(-c2ccc(F)cc2)nn1,0.87,0.85,55.5,57,–,–,–,–,–,–,–,–,–
CCc1ccc(-n2cc(COC(=O)/C=C/C=C/c3ccc4c(c3)OCO4)nn2)cc1,0.83,0.8,57.5,60,–,–,–,–,–,–,–,–,–
O=C(/C=C/C=C/c1ccc2c(c1)OCO2)OCc1cn(-c2ccc(Cl)c(Cl)c2)nn1,0.632,0.588,69.6,73,63.6,90,46.4,50,Non-toxic,–,–,–,Active
O=C(/C=C/C=C/c1ccc2c(c1)OCO2)OCc1cn(-c2cccc([N+](=O)[O-])c2)nn1,1.44,1.46,15.6,15.4,–,–,–,–,–,–,–,–,–

# — ChEMBL document CHEMBL3414439, “Design, synthesis and biological evaluation of piperic acid triazolyl derivatives as potent anti-inflammatory agents” (Eur J Med Chem, 2015)
